The values below come from patent US12350247B2, “Use of APE1/Ref-1 inhibitors for treatment of retinal diseases” (Indiana University Research and Technology Corporation, priority 2017, dated 2025).

Data set [1] has as its system Pa03C. Briefly: Monolayer cytotoxicity under hypoxia (alamarBlue). It is filed as cell-based. The following applies: Homo sapiens, N = 3, read-out: LC50 (the source's name). An excerpt:
(§1) To determine target selectivity, analogs of APX3330, APX2009 and APX2014, and an analog of SLC-0111, FC12-531A, were used.

Data set [2] deals with Panc10.05. Briefly: Monolayer cytotoxicity under hypoxia (alamarBlue). It is filed as cell-based. As to conditions: Homo sapiens, Panc1005, Panc10.05, N = 3, read-out: LC50 (the source's name).
Text: as §1

Data set [3] has as its system Panc10.05. Briefly: 3D tumor spheroid culture growth (fluorescence intensity). As to conditions: read-out: LC50; 3D Cultures, Tumor Alone, Panc10.05, D12 curves.
Data set [4] concerns human adenocarcinoma colon suspension cell line Colo-201. Briefly: Alamar blue cytotoxicity combination assay (CalcuSyn). It is filed as cell-based. The method, then:
Colo-201 (Yunhua Liu) was seeded in a 96-well tissue culture plate at 2000 cells/well in RPMI+Sodium Pyruvate+10% FBS and grown overnight at 37° C., 5% CO2. 2× Drug Media RPMI+Sodium Pyruvate+5% FBS was added at dosages of APX3330 (Apexian) in a 5-point spread from 75 uM to 6.3 uM and spiked with CPI-613 (Apexbio Technology) at 75 uM, or 50 uM, or alone for single agent. Cells were incubated 72 hours at 37° C., 5% CO2 and then 10% Alamar blue fluorescent cell viability indicator (INVITROGEN™) was added directly to plate. Indicator was incubated 4 hours at 37° C., 5% CO2, and then read on a fluorescent reader (SYNERGY™ H4 BioTek). […] FIG. 31D depicts Chou-Talalay Index (CI) of dose combinations (CalcuSyn). FIG. 31E depicts synergistic drug combinations (CalcuSyn) of APX3330 spiked with 50 uM CPI-613 or 75 uM CPI-613. […] Data shown is the average of 3 separate cytotoxicity assays; each assay normalized to media only control.

Another data set has as its system 10.05 cells. Briefly: Intracellular pH assay (pHrodo Red AM) in hypoxic 10.05 cells. It is filed as cell-based, human. As to conditions: 0.2% O2 48 hrs; up to 50 μM APX3330, 100 μM SLC-0111; 8 APX2009, 5 μM APX2014. An excerpt:
Therefore, the APX3330 analogs, APX2009 and APX2014, were used to determine whether APE1/Ref-1 redox inhibition alone can shift intracellular pH in hypoxic PDAC cells given a sufficiently potent inhibitor.

Data set [5] deals with mouse C26 colon cancer cells. Briefly: Colon cancer orthotopic tumors, oxaliplatin with APX3330. It is filed as in vivo, mice. On the procedure: Immune competent mice were injected with mouse C26 colon cancer cells in the caecum (FIG. 29A). Animals were treated with either oxaliplatin or oxaliplatin with APX3330 and tumor size determined compared to vehicle controls (FIG. 29B).

In another data set the test system is pancreatic tumor. Briefly: Xenograft model, APX3330 with gemcitabine. Type of data set: in vivo. As to conditions: APX3330 (25 mg/kg) combined with gemcitabine (35 mg/kg). An excerpt:
The data in FIG. 14C is tumor volume at sacrifice. Combination therapy was well-tolerated.

Data set [6] concerns Pa03C. Briefly: 3D tumor spheroid culture growth (fluorescence intensity).
Data set [7] relates to patient-derived Pa03C tumors with CAFs. Briefly: Flank co-culture model of PDAC, APX3330 and Ruxolitinib. Type of data set: in vivo, mice. On the procedure: Treatment of the implanted tumors started on day 11 post implant. Particularly, the co-cultures implanted included 2.5×10^6 tumor cells +/−5 ×10^6 CAFs, providing a 1:2 ratio of tumor cell to CAF. […] The mice were then administered either 50 mg/kg APX3330 BID in 4% Cr:EtOH, 50 mg/kg Rux SID pm in 4% Cr:EtOH, or combinations of the agents. Treatment schedule consisted of treating for 5 days and then giving 2 days off treatment until the tumors reached an average size of 2000 mm^3.

Another data set deals with murine KPC cells. Briefly: Alamar blue proliferation-based assay. The following applies: 3 days incubation. Type of data set: cell-based.

Take `CCCCCCCCC/C(=C\C1=C(C)C(=O)C(OC)=C(OC)C1=O)C(=O)O` [APX3330]: the CC50 with Pa03C [1] is 50.2 µM; in the data set with Panc10.05 [2], 40.3 µM; with Panc10.05 [3], 44.5 µM; with Pa03C [6] (read-out: LC50, 3D Cultures, Tumor Alone, Pa03C, D12 curves), 37.9 µM. The “drug combination synergy (Chou-Talalay, CalcuSyn)” value in data set [4] (APX3330 75 uM and 50 uM spiked with 50 uM CPI-613, 72 hours) is listed as “synergy was observed”; in [4] (all but one APX3330 dosage (6.3 uM), spiked with 75 uM CPI-613, 72 hours), “Synergy was observed”. For the same compound, the “effect on intracellular pH as single agent” value with 10.05 cells is given as “did not affect”. Also, the “oxaliplatin induced loss of myenteric neurons in the colon” value in [5] (CRC mice) is “alleviated oxaliplatin induced loss of myenteric neurons”. Further, the “tumor cell killing vs oxaliplatin alone” value in [5] (oxaliplatin with APX3330) was “dramatic and significantly increased tumor cell killing”. Moreover, in the data set with pancreatic tumor, the “tolerability of combination therapy” value is “well-tolerated”. Also, the “tumor volume at sacrifice vs single agents alone” value in the data set on pancreatic tumor was “significantly decreased tumor volume”. The “effect of gemcitabine with APX3330 on tumor” value in the data set with Pa03C [6] (Pa03C in co-culture with CAFs, APX3330 50 μM) was “dose-dependent combination effect”. The tumor volume result in data set [7] (Ruxolitinib (Rux) in combination with APX3330) is given as “reduction in tumor volume”. The average tumor size in [7] (combination therapy: 50 mg/kg APX3330 BID with 50 mg/kg Rux SID, day 31) stood at 1200 mm^3; in data set [7] (treatment alone, 50 mg/kg, day 28), 1750 mm³. Moreover, the “cytotoxicity in combination with Napabucasin” value in the data set with murine KPC cells is “enhancement of Napa-induced cytotoxicity”.
